Laboratory results reported in PubChem BioAssay AID1918935 (Molecular Pharmacology Branch, DTP, NCI, 2023).

Test system: 324938-238-R-J1-PDC complex spheroid viability
Assay: Anticancer human tumor 324938-238-R-J1-PDC patient-derived bladder carcinoma cell line growth inhibition
Settings: for IC50: curve of first compound; for viability, T/C: stronger effect = lower value
Method in brief: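 Multicellular complex spheroids of tumor cells with human endothelial cells (HUVEC) and mesenchymal stem cells; the LSD1 inhibitor iadademstat was combined with standard-of-care or investigational agents. Top concentration at or near clinical Cmax, half-log dilutions; final DMSO ≤0.25%.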

[1] = second compound 0.1 µM, first compound 0.0316 µM
[2] = second compound 0.1 µM, first compound 0.1 µM
[3] = second compound 0.1 µM, first compound 0.316 µM
[4] = second compound 0.1 µM, first compound 1 µM
[5] = second compound 0.316 µM, first compound 0.0316 µM
[6] = second compound 0.316 µM, first compound 0.1 µM
[7] = second compound 0.316 µM, first compound 0.316 µM
[8] = second compound 0.316 µM, first compound 1 µM
[9] = second compound 1 µM, first compound 0.0316 µM
[10] = second compound 1 µM, first compound 0.1 µM
[11] = second compound 1 µM, first compound 0.316 µM
[12] = second compound 1 µM, first compound 1 µM
[13] = second compound 3.16 µM, first compound 0.0316 µM
[14] = second compound 3.16 µM, first compound 0.1 µM
[15] = second compound 3.16 µM, first compound 0.316 µM
[16] = second compound 3.16 µM, first compound 1 µM
[17] = second compound 10 µM, first compound 0.0316 µM
[18] = second compound 10 µM, first compound 0.1 µM
[19] = second compound 10 µM, first compound 0.316 µM
[20] = second compound 10 µM, first compound 1 µM
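Note: spheroids also contain HUVEC and human MSCs and agents combined with iadademstat; spheroids exposed to agents for 7 days before readout.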

Nc1ncn(C2CC(O)C(CO)S2)c(=O)n1 (stereo not given) + NC1CCC(NC2CC2c2ccccc2)CC1
IC50 (second compound 0.1 µM): 26.6 nM | IC50 (second compound 0.316 µM): 19.9 nM | IC50 (second compound 1 µM): 22.8 nM | IC50 (second compound 3.16 µM): 13.1 nM | IC50 (second compound 10 µM): 16.3 nM | viability, T/C (second compound 0.1 µM, first compound 0.000949 µM): 71.9% | viability, T/C (second compound 0.1 µM, first compound 0.003 µM): 73.7% | viability, T/C (second compound 0.1 µM, first compound 0.00949 µM): 62.8% | viability, T/C (second compound 0.1 µM, first compound 0.03 µM): 47.2% | viability, T/C (second compound 0.1 µM, first compound 0.0949 µM): 34.2% | viability, T/C (second compound 0.1 µM, first compound 0.3 µM): 22.8% | viability, T/C (second compound 0.316 µM, first compound 0.000949 µM): 74.1% | viability, T/C (second compound 0.316 µM, first compound 0.003 µM): 71.8% | viability, T/C (second compound 0.316 µM, first compound 0.00949 µM): 60.1% | viability, T/C (second compound 0.316 µM, first compound 0.03 µM): 43.9% | viability, T/C (second compound 0.316 µM, first compound 0.0949 µM): 30.6% | viability, T/C (second compound 0.316 µM, first compound 0.3 µM): 22.9% | viability, T/C (second compound 1 µM, first compound 0.000949 µM): 77.1% | viability, T/C (second compound 1 µM, first compound 0.003 µM): 64.8% | viability, T/C (second compound 1 µM, first compound 0.00949 µM): 58.3% | viability, T/C (second compound 1 µM, first compound 0.03 µM): 49.3% | viability, T/C (second compound 1 µM, first compound 0.0949 µM): 35.6% | viability, T/C (second compound 1 µM, first compound 0.3 µM): 23.8% | viability, T/C (second compound 3.16 µM, first compound 0.000949 µM): 70.6% | viability, T/C (second compound 3.16 µM, first compound 0.003 µM): 62.1% | viability, T/C (second compound 3.16 µM, first compound 0.00949 µM): 55.3% | viability, T/C (second compound 3.16 µM, first compound 0.03 µM): 39.2% | viability, T/C (second compound 3.16 µM, first compound 0.0949 µM): 32.7% | viability, T/C (second compound 3.16 µM, first compound 0.3 µM): 22.2% | viability, T/C (second compound 10 µM, first compound 0.000949 µM): 65.9% | viability, T/C (second compound 10 µM, first compound 0.003 µM): 64.3% | viability, T/C (second compound 10 µM, first compound 0.00949 µM): 51.3% | viability, T/C (second compound 10 µM, first compound 0.03 µM): 48.1% | viability, T/C (second compound 10 µM, first compound 0.0949 µM): 29.7% | viability, T/C (second compound 10 µM, first compound 0.3 µM): 22.3%

Nc1ncn(C2CC(O)C(CO)O2)c(=O)n1 (stereo not given) + NC1CC1c1ccc(-c2cccc(O)c2)cc1
IC50 (second compound 0.1 µM): 311 nM | IC50 (second compound 0.316 µM): 143 nM | IC50 (second compound 1 µM): 237 nM | IC50 (second compound 3.16 µM): 227 nM | IC50 (second compound 10 µM): 258 nM | viability, T/C (second compound 0.1 µM, first compound 0.00316 µM): 95.1% | viability, T/C (second compound 0.1 µM, first compound 0.01 µM): 90.3% | viability, T/C [1]: 79.2% | viability, T/C [2]: 62.8% | viability, T/C [3]: 49.7% | viability, T/C [4]: 43.9% | viability, T/C (second compound 0.316 µM, first compound 0.00316 µM): 73.6% | viability, T/C (second compound 0.316 µM, first compound 0.01 µM): 74.5% | viability, T/C [5]: 67.6% | viability, T/C [6]: 52.4% | viability, T/C [7]: 44.9% | viability, T/C [8]: 41% | viability, T/C (second compound 1 µM, first compound 0.00316 µM): 70.4% | viability, T/C (second compound 1 µM, first compound 0.01 µM): 70.9% | viability, T/C [9]: 62.8% | viability, T/C [10]: 57% | viability, T/C [11]: 47.9% | viability, T/C [12]: 41.2% | viability, T/C (second compound 3.16 µM, first compound 0.00316 µM): 74.7% | viability, T/C (second compound 3.16 µM, first compound 0.01 µM): 57.7% | viability, T/C [13]: 68.5% | viability, T/C [14]: 56.3% | viability, T/C [15]: 45.4% | viability, T/C [16]: 39.3% | viability, T/C (second compound 10 µM, first compound 0.00316 µM): 63.3% | viability, T/C (second compound 10 µM, first compound 0.01 µM): 73.7% | viability, T/C [17]: 69.9% | viability, T/C [18]: 57.6% | viability, T/C [19]: 49.7% | viability, T/C [20]: 41.4%

CC1COCCN1c1cc(C2(S(C)(=N)=O)CC2)nc(-c2ccnc3[nH]ccc23)n1 (stereo not given) + NC1CCC(NC2CC2c2ccccc2)CC1
IC50 (second compound 0.1 µM): 754 nM | IC50 (second compound 0.316 µM): 851 nM | IC50 (second compound 1 µM): 812 nM | IC50 (second compound 3.16 µM): 546 nM | IC50 (second compound 10 µM): 769 nM | viability, T/C [1]: 91.8% | viability, T/C [2]: 78.1% | viability, T/C [3]: 62.9% | viability, T/C [4]: 48.9% | viability, T/C (second compound 0.1 µM, first compound 3.16 µM): 24.5% | viability, T/C (second compound 0.1 µM, first compound 10 µM): 13.3% | viability, T/C [5]: 93.9% | viability, T/C [6]: 81.1% | viability, T/C [7]: 72% | viability, T/C [8]: 43.4% | viability, T/C (second compound 0.316 µM, first compound 3.16 µM): 30.4% | viability, T/C (second compound 0.316 µM, first compound 10 µM): 15.2% | viability, T/C [9]: 73.1% | viability, T/C [10]: 77.2% | viability, T/C [11]: 68.8% | viability, T/C [12]: 43.9% | viability, T/C (second compound 1 µM, first compound 3.16 µM): 28.5% | viability, T/C (second compound 1 µM, first compound 10 µM): 16.7% | viability, T/C [13]: 68.8% | viability, T/C [14]: 80% | viability, T/C [15]: 57.6% | viability, T/C [16]: 38.1% | viability, T/C (second compound 3.16 µM, first compound 3.16 µM): 25.9% | viability, T/C (second compound 3.16 µM, first compound 10 µM): 16.5% | viability, T/C [17]: 77.8% | viability, T/C [18]: 85.7% | viability, T/C [19]: 66.2% | viability, T/C [20]: 43.7% | viability, T/C (second compound 10 µM, first compound 3.16 µM): 28.2% | viability, T/C (second compound 10 µM, first compound 10 µM): 16.8%
